{
  "source": "paper PMC10685318",
  "about": "“Trans-cyclosulfamidate mannose-configured cyclitol allows isoform-dependent inhibition of GH47 α-D-mannosidases through a bump–hole strategy” (Chemical Science, 2023)",
  "key": {"BtMan2A": {"molecular_target": "T1, BtMan2A (Bacteroides thetaiotaomicron, UniProt Q8AAK6)", "T1 construct": "made in house; donated by Dr. W. Offen, University of York", "T1 sequence (Q8AAK6 entry or part of it, change not shown)": "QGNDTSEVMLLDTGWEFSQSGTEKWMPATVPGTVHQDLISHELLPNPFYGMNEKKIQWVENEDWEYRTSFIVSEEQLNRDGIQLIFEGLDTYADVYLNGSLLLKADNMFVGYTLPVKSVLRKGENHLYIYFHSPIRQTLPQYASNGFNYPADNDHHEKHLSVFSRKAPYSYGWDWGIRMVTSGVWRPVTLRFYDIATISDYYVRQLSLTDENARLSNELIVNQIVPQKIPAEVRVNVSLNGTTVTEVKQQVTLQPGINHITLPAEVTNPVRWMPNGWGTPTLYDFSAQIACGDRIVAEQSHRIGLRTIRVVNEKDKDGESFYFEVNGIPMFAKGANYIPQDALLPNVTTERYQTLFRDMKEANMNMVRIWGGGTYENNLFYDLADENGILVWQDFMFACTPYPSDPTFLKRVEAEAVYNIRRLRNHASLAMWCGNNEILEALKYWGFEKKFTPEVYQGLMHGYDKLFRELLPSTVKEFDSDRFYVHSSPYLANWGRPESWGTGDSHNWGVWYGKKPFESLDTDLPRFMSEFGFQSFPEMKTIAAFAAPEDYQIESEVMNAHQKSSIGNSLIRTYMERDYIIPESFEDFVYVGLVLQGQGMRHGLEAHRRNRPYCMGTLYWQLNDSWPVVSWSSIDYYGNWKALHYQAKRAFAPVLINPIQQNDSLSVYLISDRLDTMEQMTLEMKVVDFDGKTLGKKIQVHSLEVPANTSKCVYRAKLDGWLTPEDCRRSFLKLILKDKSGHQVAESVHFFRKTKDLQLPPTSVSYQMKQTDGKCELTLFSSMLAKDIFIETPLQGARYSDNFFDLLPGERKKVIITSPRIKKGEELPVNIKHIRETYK", "test": "4-MU activity assay for bacterial GH2 β-mannosidase, purified enzyme", "format": "biochemical", "protocol": "(§1) Trans-Cyclosulfamidate Cyclitols Males et al.\n2.3 GH38 α-mannosidases and GH2 β-mannosidase inhibition studies\nAll chemicals were of analytical grade and purchased from Sigma-Aldrich unless stated otherwise.\nOptimal stability of cell homogenates and enzyme working stocks was ensured by preparation and temporary storage on ice. Cell homogenates were prepared and used on the same day. Protein concentrations were quantified using the Pierce BCA Protein Assay Kit (ThermoFisher). Protein samples were measured in clear flat-bottom polystyrene 96 well microplates (Greiner Bio-One) using a EMax Plus Microplate Reader (Molecular Devices). Activity measurements of human GH38 α-mannosidases and bacterial β-mannosidase BtMan2A were performed in black flat-bottom polystyrene 96 wells microplates (Greiner Bio-One) and total fluorescence was measured using a Perkin Elmer LS-55 fluorescence spectrometer at wavelengths λex = 366 and λem = 445 nm, with the signal optimized for medium gain readings. The fluorescence values of each enzyme sample were corrected for the background signal of a blank sample containing no enzyme. In the case of IC50 determinations, values were normalized against a control sample containing enzyme without added inhibitor. […]"}, "CkGH47 WT": {"molecular_target": "CkGH47 WT (Caulobacter sp. K31, UniProt B0SWV2)", "sequence (B0SWV2 entry or part of it)": "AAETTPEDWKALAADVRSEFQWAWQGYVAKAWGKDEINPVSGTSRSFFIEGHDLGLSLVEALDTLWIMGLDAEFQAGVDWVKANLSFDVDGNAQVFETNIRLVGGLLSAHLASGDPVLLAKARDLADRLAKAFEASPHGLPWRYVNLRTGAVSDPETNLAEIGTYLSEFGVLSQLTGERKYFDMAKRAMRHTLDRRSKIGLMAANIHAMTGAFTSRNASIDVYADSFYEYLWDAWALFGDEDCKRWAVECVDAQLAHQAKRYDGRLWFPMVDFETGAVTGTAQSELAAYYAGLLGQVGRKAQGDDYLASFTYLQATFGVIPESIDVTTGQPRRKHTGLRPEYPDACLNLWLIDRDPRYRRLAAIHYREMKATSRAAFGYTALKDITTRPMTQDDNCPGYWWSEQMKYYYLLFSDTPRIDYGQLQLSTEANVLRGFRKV", "test": "Inhibition of CkGH47 WT monitored by enzymatic conversion of α-1,2-mannobiose to mannose", "format": "biochemical, Caulobacter K31 strain", "conditions": "for inhibition of the wild-type GH47 model enzyme: even at high inhibitor concentrations", "protocol": "as §1\nFigure S4. Inhibition of CkGH47 by 6 monitored by the enzymatic conversion of mannobiose to mannose. 3 concentrations of the […]\nand the reaction was incubated for 1 hour at 22 °C. The enzyme was heat denatured (90 °C for 5 minutes). Using the mannose detection kit, NADPH production at 340 nm was measured and converted to mannose concentration using a standard curve of […]\nFigure S5. Docking of 6, in pink, into the crystal structure of Caulobacter GH47 (PDB ID: 4AYO), in gold, showing the distance between the oxygen of 6 and L310. Left: 6 was docked into the CkGH47 enzyme active site by least squares fit superposition in coot against the CkGH47 and kifunensine complex (PDB ID 5NE5). Right: Position of CkGH47 WT crystal structures of the inhibitors 6 (pink) and kifunensine (green); native is shown in gold (PDB ID: 4AYO) and CkGH47 in complex with kifunensine is shown in orange (PDB ID: 5NE5); there are 2 alternate conformations of leucine each with 50% occupancy in the crystal structure. […]\n2.1 Biochemical and biological methods\nTo obtain Michaelis-Menten kinetics\nLastly, to achieve an inhibition constant, the\nThe gradient of the graph, V0/Vi\nAfter taking each time point, the sample was heat denatured at 95 °C for 5 minutes. The reactions were conducted in triplicate and averaged. […]\nmicroplate spectrophotometer (BioTek). The mannose detection kit (Megazyme) was used to detect […]\ndehydrogenase, was monitored at 340 nm. The absorbance after hexokinase was added to the mixture […]\n2.1.2 Isothermal titration calorimetry\nMicroCal ITC200 calorimeter at 25 °C over 20 injections. The experiment was duplicated to obtain a […]\nthe MicroCal PEAK-ITC analysis software.\n2.2 Crystallographic data collection and refinement of CkGH47\n3′ and the reverse primer was 5′-[…]-3′. Protein production and purification was followed as described previously.[3]\nReference data in the form of a\nRefinement of the model was conducted […]\nconformation was conducted using […]. Details of the data collection and refinement statistics […]"}},
  "note": "pIC50: −log10 of the molar value.",
  "data": [
    {"smiles": "O=S1(=O)N[C@@H]2[C@@H](O)[C@@H](O)[C@H](O)[C@@H](CO)[C@H]2O1", "note": "[compound 6, 1,6-trans-manno-cyclosulfamidate]", "values": [
      {"measurement": "pIC50", "setting": "BtMan2A", "result": "< 3.00"},
      {"measurement": "α-1,2-mannobiose hydrolysed by the WT GH47 mannosidase to mannose", "setting": "CkGH47 WT; after the addition of 1 mM 6", "result": 82, "unit": "%"},
      {"measurement": "inhibition of the wild-type GH47 model enzyme", "setting": "CkGH47 WT", "result": "no significant inhibition"},
      {"measurement": "inhibition of the wild-type GH47 model enzyme", "setting": "CkGH47 WT; listed as 1,6-trans-cyclic sulfamidate", "result": "does not inhibit"}
    ]}
  ]
}
